Key:
[1] = cited from earlier work
NF54 P. falciparum = test: SYBR Green I-based dose-response assay in Plasmodium falciparum; type: cell-based; settings: atovaquone with 1 mM DAHP, FIGS. 2C-D
Experimental: The NF54 P. falciparum line was cultured and synchronized as described previously.^28,29 Cultures were kept at 37° C. in RPMI-1640 medium supplemented with 25 mM HEPES, 100 μM hypoxanthine, 0.5% Albumax II, 24 mM sodium bicarbonate, 25 μg/mL gentamicin (Life Technologies, Carlsbad, CA 11021-045) and gassed with 5% CO2, 1% O2, and 94% N2 mixture. Dose-Response Assay in Plasmodium falciparum A SYBR Green I-based assay was used to measure in vitro P. falciparum drug susceptibility.^30,31 Ring-stage NF54 parasites were seeded at 1% hematocrit and 1% starting parasitemia in 384-well black clear-bottom plates containing test compounds (stocks of 10 mM pyrimethamine, 0.1 mM atovaquone, and 10 mM DHA in DMSO) plated in triplicate in 12-point serial dilutions for 72 h. […] Lysis buffer (0.16% w/v saponin, 1.6% Triton X-100, 5 mM EDTA, and 20 mM Tris-HCl, pH 7.4) with a 1:1000 dilution of SYBR Green I fluorescent dye (Invitrogen) was added for at least 12 h, and fluorescence readings were taken (excitation at 494 nm, emission at 530 nm) using a SpectraMax M5 (Molecular Devices, Sunnyvale, CA) plate reader. IC50 values were calculated using a nonlinear regression curve fit in Graphpad Prism 9 in biological triplicate.

[2] = test system: C57BL/6J mouse embryonic fibroblasts; test: Proliferation of mouse embryonic fibroblasts in DAHP treatment; type: cell-based; settings: 5 mM DAHP, 48 hours; FIG. 2E
Experimental: Proliferation of Mouse Embryonic Fibroblasts in DAHP Treatment Twenty-thousand immortalized C57BL/6J mouse embryonic fibroblasts were plated in a well of a 6-well plate and treated with 5 mM DAHP or PBS vehicle. The cells were allowed to grow for 48 hours, then trypsinized and counted. Population doublings were calculated as follows: [formula] [formula]

Toxoplasma gondii [3] = test: Pyrimethamine/DAHP drug synergy lytic assays; type: cell-based; settings: pyrimethamine in combination with 2.5 mM DAHP; FIGS. 1G-H
Experimental: Pyrimethamine/DAHP Drug Synergy Lytic Assays
96 well plates were utilized to generate 8-point dosage curves of parasites grown in various concentrations of pyrimethamine with and without 2.5 mM DAHP. At the start of the assay, prior to parasite harvest, 96 well plates containing confluent fibroblasts were set up with 1.33× the desired final drug concentrations in 150 μl of volume. This ensured that the addition of 50 μl of parasites would result in the desired 1× drug concentration of both pyrimethamine and DAHP. Wells designated as containing less than the maximum dosage of either drug (10 μg/ml pyrimethamine and 2.5 mM DAHP) received the equivalent volume of vehicle (ethanol for pyrimethamine, PBS for DAHP). Parasites were then force-lysed, filtered, and resuspended to a concentration of 5e5 parasites/ml. 50 μl of parasites were then added to each well, resulting in an infection of 2.5e4 parasites per well. Plates were then spun at 290 g for 5 min. Plates were then incubated for 3 days to allow for parasite plaquing. Plates were then washed with PBS followed by staining with crystal violet as conducted for plaque assays. Well staining was then quantified by plate reader at the 570 nm wavelength. […] Drug curves were then generated and IC50 values were calculated from biological triplicate experiments in GraphPad Prism 9.

Toxoplasma gondii [4] = test: Plaque assays with DAHP and BH4; type: cell-based; settings: FIG. 1F
Experimental: Plaque Assays with DAHP and BH4
RHAku80 were maintained for at least two passages in DMEM and HPLM prior to beginning the plaque assay. Confluent human fibroblasts were maintained in 6-well plates in either DMEM or HPLM for at least 24 h prior to the start of the assay. To begin the experiment, parasites maintained in DMEM and HPLM were syringe released and filtered through a […]. Parasites were then counted and diluted such that each well received 500 parasites. Wells were then treated with the indicated concentrations of DAHP or PBS vehicle. For the BH4 rescue experiments, wells received 50 μM BH4 or the equivalent volume of DMSO vehicle. Plaques were allowed to grow for 6 days prior to fixation. For fixation, wells were first washed with PBS, then fixed for 10 min at room temperature with 100% ethanol. Wells were then stained for 10 min with crystal violet (12.5 g crystal violet, 125 ml 100% ethanol, 500 ml 1% ammonium oxalate). Wells were then washed three times with water and allowed to dry overnight.

[5] = test system: DD-BFD2, CST10-fLuc, pSAG1-nLuc reporter strain; test: Firefly and nano-luciferase assays of the DD-BFD2, CST10-fLuc, pSAG1-nLuc reporter strain; type: cell-based, Toxoplasma; settings: 3 μM shield-1
Text: This strain is able to recapitulate the biology of both the acute tachyzoite stage as well as the chronic bradyzoite stage. Differentiation from the tachyzoite to bradyzoite stage is mediated through the expression of Bradyzoite Formation Deficient 2 (BFD2) tagged with a degradation domain. Under standard conditions, the degradation domain ensures BFD2 is degraded from parasites, maintaining them in the tachyzoite stage. Upon the addition of the small-molecule shield-1, BFD2 is stabilized and causes differentiation of parasites to the bradyzoite stage.^34 The engineered parasite strain allows the use of a dual-luciferase system to report on differentiation status and general parasite viability. Expression of firefly luciferase is driven by fusion via t2a peptide to the bradyzoite marker CST10, whereas expression of nano-luciferase is driven by the tachyzoite promoter SAG1. Addition of shield-1 is able to simultaneously increase the CST10 bradyzoite marker while decreasing the SAGI tachyzoite marker (FIGS. 2G-H). […] This enables examination of the chronic parasite state with minimal interference on the endogenous circuity. Chemical screens of this engineered strain can therefore identify compounds that bias parasite state either to the tachyzoite or bradyzoite stage, as well as compounds capable of killing both stages simultaneously. […]

Row | SMILES | solubility [1] | potentiating effect in combination with atovaquone (NF54 P. falciparum) | growth of a proliferative mouse fibroblast cell line (population doublings) [2] | reduction in the pyrimethamine IC50 value (Toxoplasma gondii [3]) | effect on parasite viability (plaque assay) (Toxoplasma gondii [4]; 2.5 mM DAHP) | parasite lytic cycle (plaque assay) (Toxoplasma gondii [4]; 5 mM DAHP) | antiparasitic effect of DAHP with exogenous BH4 (Toxoplasma gondii [4]; exogenous BH4 (50 μM)) | CST10 bradyzoite marker (firefly luciferase reporter) ([5]; FIG. 2G) | SAG1 tachyzoite marker (nano-luciferase reporter) ([5]; FIG. 2H)
1 | Nc1cc(O)nc(N)n1 [DAHP, 2,4-diamino-6-hydroxypyrimidine] | poor | no potentiating effect | no effect | 70% | no apparent effect | able to block the parasite lytic cycle | rescued |  | 
2 | CC[C@H](C(=O)N1CCCC[C@H]1C(=O)O[C@H](CCc1ccc(OC)c(OC)c1)c1cccc(OCCN2CCOCC2)c1)c1cc(OC)c(OC)c(OC)c1 [shield-1] |  |  |  |  |  |  |  | increase | decreasing

Reference: patent US20250295658A1, “ANTIPARASITIC AGENTS AND METHODS” (Whitehead Institute for Biomedical Research, priority 2022, published 2025)
